Laboratory results taken from patent US9540350B2, “1-substituted, 4-(substituted phenoxymethyl)-1,2,3-triazole compounds with antifungal properties and methods for preparation thereof” (FDC LIMITED, priority 2013, dated 2017).
Values after ≈ are worked out from the molar mass of the structure shown.

Columns and labels:
[1] = test system: C. albicans ATCC 24433; assay: Antifungal susceptibility, broth dilution MIC (CLSI M27-A2); format: cell-based; conditions: Candida albicans, ATCC24433; C. albicans ATCC 24433; broth dilution, RPMI 1640 with MOPS, 48 hours; read-out: Activity against organisms (MIC50) Ca01
Experimental: (§1) The compounds of Formula 1 were tested for antifungal activity against Candida albicans, C. glabrata, C. krusei, C. tropicalis, Cryptococcus neoformans, Aspergillus fumigatus, A. niger and Fusarium proliferatum. In vitro evaluation of antifungal activity was performed by determining the minimum inhibitory concentration (MIC) following standard methods (CLSI: Reference method for broth dilution antifungal susceptibility testing of yeasts; Approved standard, second edition M27-A2, 2002; CLSI: Reference method for broth dilution antifungal susceptibility testing of filamentous fungi; Approved standard M38-A, 2002). Anti-fungal susceptibility testing of these anti-fungal compounds was done by broth dilution method using RPMI 1640 medium with MOPS buffer. Known anti-fungal agent fluconazole was used as positive control. End points were determined after 48 hours visually and by using spectrophotometer wherever necessary. Different dilutions were tried and various sets of experiments performed. The activity parameters are enumerated in Table 4.

[2] = test system: C. glabrata ATCC 90030; assay: as above; format: cell-based, Candida glabrata; conditions: Nakaseomyces glabratus, ATCC90030; C. glabrata ATCC 90030; broth dilution, RPMI 1640 with MOPS, 48 hours; read-out: Activity against organisms (MIC50) Cg01
Experimental: as §1

[3] = test system: C. krusei ATCC 6258; assay: as above; format: cell-based, Candida krusei; conditions: Pichia kudriavzevii, ATCC6258; C. krusei ATCC 6258; broth dilution, RPMI 1640 with MOPS, 48 hours; read-out: Activity against organisms (MIC50) Ck01
Experimental: as §1

[4] = test system: C. tropicalis ATCC 750; assay: as above; format: cell-based, Candida tropicalis; conditions: Candida tropicalis, ATCC750; C. tropicalis ATCC 750; broth dilution, RPMI 1640 with MOPS, 48 hours; read-out: Activity against organisms (MIC50) Ct01
Experimental: as §1

[5] = test system: C. neoformans ATCC 34664; assay: as above; format: cell-based, Cryptococcus neoformans; conditions: Cryptococcus neoformans, ATCC34664; C. neoformans ATCC 34664; broth dilution, RPMI 1640 with MOPS, 48 hours; read-out: Activity against organisms (MIC50) Cn01
Experimental: as §1

[6] = test system: A. fumigatus ATCC 46645; assay: Antifungal susceptibility, broth dilution MIC (CLSI M38-A); format: cell-based; conditions: Aspergillus fumigatus, ATCC46645; A. fumigatus ATCC 46645; broth dilution, RPMI 1640 with MOPS, 48 hours; read-out: Activity against organisms (MIC50) Afm01
Experimental: as §1

[7] = test system: A. niger ATCC 16404; assay: as above; format: cell-based; conditions: Aspergillus niger, ATCC16404; A. niger ATCC 16404; broth dilution, RPMI 1640 with MOPS, 48 hours; read-out: Activity against organisms (MIC50) An01
Experimental: as §1

[8] = test system: F. proliferatum ATCC 10052; assay: as above; format: cell-based; conditions: Fusarium proliferatum, ATCC10052; F. proliferatum ATCC 10052; broth dilution, RPMI 1640 with MOPS, 48 hours; read-out: Activity against organisms (MIC50) Fp01
Experimental: as §1

SMILES | MIC50 [1] | MIC50 [2] | MIC50 [3] | MIC50 [4] | MIC50 [5] | MIC50 [6] | MIC50 [7] | MIC50 [8]
O=C(/C=C/c1ccc(OCc2cn(CC(O)(Cn3cncn3)c3ccc(F)cc3F)nn2)cc1)c1ccc(OCC(O)(Cn2cncn2)c2ccc(F)cc2F)cc1 (centres unmarked) [Compound 1B-10, (E)-1-(4-(2-(2,4-Difluorophenyl)-2-hydroxy-3-(m-1,2,4-triazol-1-yl)propoxy)phenyl)-3-(4-((1-(2-(2,4-difluorophenyl)-2-hydroxy-3-(1H-1,2,4-triazol-1-yl)propyl)-1H-1,2,3-triazol-4-yl)methoxy)phenyl)prop-2-en-1-one] | 0.25 µg/mL (≈ 0.314 µM) | 0.5 µg/mL (≈ 0.628 µM) | 2 µg/mL (≈ 2.51 µM) | 1 µg/mL (≈ 1.26 µM) | 1 µg/mL (≈ 1.26 µM) | > 2 µg/mL | > 2 µg/mL | > 2 µg/mL
CC/C=C/c1ccc(OCc2cn(CC(O)(Cn3cncn3)c3ccc(F)cc3F)nn2)cc1 (centres unmarked) [Compound 1C-1, (E)-1-(4-((4-(But-1-en-1-yl)phenoxy)methyl)-1H-1,2,3-triazol-1-yl)-2-(2,4-difluorophenyl)-3-(1H-1,2,4-triazol-1-yl)propan-2-ol] | 0.03 µg/mL (≈ 0.0643 µM) | 0.015 µg/mL (≈ 0.0322 µM) | 2 µg/mL (≈ 4.29 µM) | 0.25 µg/mL (≈ 0.536 µM) | 0.12 µg/mL (≈ 0.257 µM) | 8 µg/mL (≈ 17.1 µM) | 8 µg/mL (≈ 17.1 µM) | > 16 µg/mL
CCCC/C=C/c1ccc(OCc2cn(CC(O)(Cn3cncn3)c3ccc(F)cc3F)nn2)cc1 (centres unmarked) [Compound 1C-2, (E)-2-(2,4-Difluorophenyl)-1-(4-((4-(n-hex-1-en-1-yl)phenoxy)methyl)-1H-1,2,3-triazol-1-yl)-3-(1H-1,2,4-triazol-1-yl)propan-2-ol] | 0.12 µg/mL (≈ 0.243 µM) | 0.06 µg/mL (≈ 0.121 µM) | 2 µg/mL (≈ 4.04 µM) | 1 µg/mL (≈ 2.02 µM) | 0.25 µg/mL (≈ 0.506 µM) | 4 µg/mL (≈ 8.09 µM) | 4 µg/mL (≈ 8.09 µM) | > 4 µg/mL
CCCCCCCCCC/C=C/c1ccc(OCc2cn(CC(O)(Cn3cncn3)c3ccc(F)cc3F)nn2)cc1 (centres unmarked) [Compound 1C-3, (E)-2-(2,4-Difluorophenyl)-1-(4-((4-(n-dodec-1-en-1-yl)phenoxy)methyl)-1H-1,2,3-triazol-1-yl)-3-(1H-1,2,4-triazol-1-yl)propan-2-ol] | 1 µg/mL (≈ 1.73 µM) | 0.12 µg/mL (≈ 0.207 µM) | > 2 µg/mL | > 2 µg/mL | 0.5 µg/mL (≈ 0.864 µM) | > 2 µg/mL | > 2 µg/mL | > 2 µg/mL
C/C=C/c1ccc(OCc2cn(CC(O)(Cn3cncn3)c3ccc(F)cc3F)nn2)cc1 (centres unmarked) [Compound 1C-4, (E)-2-(2,4-Difluorophenyl)-1-(4-((4-(prop-1-en-1-yl)phenoxy)methyl)-1H-1,2,3-triazol-1-yl)-3-(1H-1,2,4-triazol-1-yl)propan-2-ol] | 0.03 µg/mL (≈ 0.0663 µM) | 0.06 µg/mL (≈ 0.133 µM) | 8 µg/mL (≈ 17.7 µM) | 0.12 µg/mL (≈ 0.265 µM) | 0.5 µg/mL (≈ 1.11 µM) | 32 µg/mL (≈ 70.7 µM) | 64 µg/mL (≈ 141 µM) | > 32 µg/mL
OC(Cn1cncn1)(Cn1cc(COc2ccccc2)nn1)c1ccc(F)cc1F (centres unmarked) [Compound 1D-1, 2-(2,4-Difluorophenyl)-1-(4-phenyloxymethyl-1H-1,2,3-triazol-1-yl)-3-(1H-1,2,4-triazol-1-yl)propan-2-ol] | 0.25 µg/mL (≈ 0.606 µM) | 0.25 µg/mL (≈ 0.606 µM) | > 128 µg/mL | 2 µg/mL (≈ 4.85 µM) | 4 µg/mL (≈ 9.7 µM) | > 128 µg/mL | > 128 µg/mL | > 128 µg/mL
O=Cc1ccc(OCc2cn(CC(O)(Cn3cncn3)c3ccc(F)cc3F)nn2)cc1 (centres unmarked) [Compound 1D-2, 4-((1-(2-(2,4-difluorophenyl)-2-hydroxy-3-(1H-1,2,4-triazol-1-yl)propyl)-1H-1,2,3-triazol-4-yl)methoxy)benzaldehyde] | 0.5 µg/mL (≈ 1.14 µM) | 1 µg/mL (≈ 2.27 µM) | 64 µg/mL (≈ 145 µM) | 2 µg/mL (≈ 4.54 µM) | 4 µg/mL (≈ 9.08 µM) | > 128 µg/mL | > 128 µg/mL | > 128 µg/mL
CC(=O)c1ccc(OCc2cn(CC(O)(Cn3cncn3)c3ccc(F)cc3F)nn2)cc1 (centres unmarked) [Compound 1D-3, 1-(4-(4-Acetylphenyloxy)methyl-1H-1,2,3-triazol-1-yl)-2-(2,4-difluorophenyl)-3-(1H-1,2,4-triazol-1-yl)propan-2-ol] | 0.5 µg/mL (≈ 1.1 µM) | 1 µg/mL (≈ 2.2 µM) | 64 µg/mL (≈ 141 µM) | 4 µg/mL (≈ 8.8 µM) | 4 µg/mL (≈ 8.8 µM) | > 128 µg/mL | > 128 µg/mL | > 128 µg/mL
CC(=O)Nc1ccc(OCc2cn(CC(O)(Cn3cncn3)c3ccc(F)cc3F)nn2)cc1 (centres unmarked) [Compound 1D-4, 1-(4-(4-Acetylaminophenyloxy)methyl-1H-1,2,3-triazol-1-yl)-2-(2,4-difluorophenyl)-3-(1H-1,2,4-triazol-1-yl)propan-2-ol] | 32 µg/mL (≈ 68.2 µM) | 32 µg/mL (≈ 68.2 µM) | > 128 µg/mL | > 128 µg/mL | > 128 µg/mL | > 128 µg/mL | > 128 µg/mL | > 128 µg/mL
Cc1ccc(OCc2cn(CC(O)(Cn3cncn3)c3ccc(F)cc3F)nn2)cc1 (centres unmarked) [Compound 1D-5, 2-(2,4-Difluorophenyl)-1-(4-(4-methylphenyloxy)methyl-1H-1,2,3-triazol-1-yl)-3-(1H-1,2,4-triazol-1-yl)propan-2-ol] | 0.12 µg/mL (≈ 0.281 µM) | 0.03 µg/mL (≈ 0.0704 µM) | 8 µg/mL (≈ 18.8 µM) | 0.5 µg/mL (≈ 1.17 µM) | 2 µg/mL (≈ 4.69 µM) | 64 µg/mL (≈ 150 µM) | 64 µg/mL (≈ 150 µM) | > 128 µg/mL
Cc1cc(C#N)c(N)c(C#N)c1-c1ccc(OCc2cn(CC(O)(Cn3cncn3)c3ccc(F)cc3F)nn2)cc1 (centres unmarked) [Compound 1D-6, 3-Amino-4′-((1-(2-(2,4-difluorophenyl)-2-hydroxy-3-(1H-1,2,4-triazol-1-yl)propyl)-1H-1,2,3-triazol-4-yl)methoxy)-6-methylbiphenyl-2,4-dicarbonitrile] | 0.5 µg/mL (≈ 0.881 µM) | 0.5 µg/mL (≈ 0.881 µM) | > 8 µg/mL | 2 µg/mL (≈ 3.52 µM) | 1 µg/mL (≈ 1.76 µM) | > 8 µg/mL | > 8 µg/mL | > 8 µg/mL
C#CCOc1ccc(/C=C/C(=O)c2ccc(N3CCN(CCC)CC3)cc2)cc1 [Compound 6A-1, (E)-3-(4-(Prop-2-yn-1-yloxy)phenyl)-1-(4-(4-propylpiperazin-1-yl)phenyl)prop-2-en-1-one] | > 4 µg/mL | > 4 µg/mL | > 4 µg/mL | > 4 µg/mL | > 4 µg/mL | > 4 µg/mL | > 4 µg/mL | > 4 µg/mL
C#CCOc1ccc(/C=C/C(=O)c2ccc(N3CCN(CCCC)CC3)cc2)cc1 [Compound 6A-2] | > 4 µg/mL | > 4 µg/mL | > 4 µg/mL | > 4 µg/mL | > 4 µg/mL | > 4 µg/mL | > 4 µg/mL | > 4 µg/mL
C#CCOc1ccc(/C=C/C(=O)c2ccc(N3CCN(Cc4ccc(OC)cc4)CC3)cc2)cc1 [Compound 6A-4] | > 8 µg/mL | > 8 µg/mL | > 8 µg/mL | > 8 µg/mL | > 8 µg/mL | > 8 µg/mL | > 8 µg/mL | > 8 µg/mL
OCc1cn(CC(O)(Cn2cncn2)c2ccc(F)cc2F)nn1 (centres unmarked) [Compound 8A-1, 2-(2,4-Difluorophenyl)-1-(4-(hydroxymethyl)-1H-1,2,3-triazol-1-yl)-3-(1H-1,2,4-triazol-1-yl)propan-2-ol] | 32 µg/mL (≈ 95.2 µM) | 2 µg/mL (≈ 5.95 µM) | > 128 µg/mL | > 128 µg/mL | > 128 µg/mL | > 128 µg/mL | > 128 µg/mL | > 128 µg/mL
COc1ccc(/C=C/C(=O)c2ccc(OC)cc2)cc1 [Compound 9A-1] | > 4 µg/mL | > 4 µg/mL | > 4 µg/mL | > 4 µg/mL | > 4 µg/mL | > 4 µg/mL | > 4 µg/mL | > 4 µg/mL
